Results on 2 compounds are retold here after patent US20060240057A1, “Termiticide compositions” (priority 2003, published 2006).

Like-named read-outs stand apart in the source and are kept apart here.

One may read the mortality as the share of the test organisms that died.

The test system of data set [1] is termite (Reticulitermes flavipes) workers. Kind of data set: Termite mortality by soil applications of combinations of bifenthrin and acetamiprid (soil column in glass tube). It counts as in vivo. The settings on record: soil application, read-out: Percent Mortality; for mortality at 60 ppm: Bifenthrin @ 60 ppm; for mortality at 500 ppm: Acetamiprid @ 500 ppm. As to the method:
(§1) Test compositions made up of Talstar® Termiticide/Insecticide and a 70% wettable powder of acetamiprid in distilled water were prepared that provided appropriate rates of application of combinations of bifenthrin and acetamiprid, as well as bifenthrin and acetamiprid alone.
Glass tubing, 13 mm in diameter, was then cut into 20 cm sections in sufficient quantity to conduct the test. Each […] section of tubing was marked at 5 cm, 8 cm, and 18 cm distances from one end of the tube designated as the bottom. Each section of tubing was packed with a sandy soil (3% wt/wt moisture content) by first placing a section of a 1 cm diameter wooden dowel into the bottom of the glass tube up to the 8 cm marking, then introducing approximately 2 cm of soil into the other end of the tube designated as the top. The soil was then gently packed into the tube from the top using a second section of the 1 cm diameter wooden dowel. The process was repeated using 2 cm aliquots of soil until the soil level was adjacent to the 18 cm marking, thereby providing a column of soil 10 cm in height. An agar plug, which was formed in a section of the 13 mm diameter glass tubing of the type used to conduct these tests, was cut into 3 cm sections. A 3 cm section of agar was then gently pushed into the bottom of each tube containing the soil until the agar plug firmly touched the soil at the 8 cm marking, thereby creating a 5 cm void in the bottom of each section of tubing. Following placement of the agar plugs in each section of tubing; two sections of applicator sticks cut in 6 cm lengths were inserted into the bottom end of each tube thereby forcing about 1 cm of each stick into the agar plug to hold the agar plug in place. Plastic caps, with an inside diameter of 13 mm and holes drilled in their centers, were placed on the bottom ends of each of the sections of tubing. A sharpened applicator stick was then inserted into the hole in each plastic cap through the agar plug to the intersection of the agar plug and the soil. The applicator stick was then gently removed in a rotating manner to provide a means for a free flow of liquid through the soil. Each section of tubing was then stood upright, and 0.5 niL aliquots of each suspension of bifenthrin, acetamiprid or combinations thereof, as prepared above, were pipetted onto the top of the soil. Upon application of the test suspensions the top of each section of tubing was covered with a small piece of aluminum foil. The tubes were then allowed to stand for about 20 hours to allow movement of the termiticide(s) downward into the soil. After this time a plastic cap of 13 mm inside diameter was placed on the top of each section of tubing. The plastic caps with the holes drilled in their centers were removed from the bottom of each section of tubing, and a piece of 0.5 cm×4 cm filter paper was then placed between the two sections of applicator sticks. Fifty termite (Reticulitermes flavipes) workers were then inserted into the 5 cm void in the bottom of each section of tubing. New plastic caps without holes drilled in their centers were placed on the bottom of each section of tubing. The sections of tubing were then stored in an upright position, with the termites located below the soil. At 1, 3, 6, 8, 10, 13, 15, 17, 20, and 22 days after treatment (DAT), termite mortality was measured.

For data set [2], the system named is termites (Reticulitermes flavipes). Kind of data set: Termite mortality by direct application (track sprayer) of combinations of bifenthrin and acetamiprid to termites. It counts as in vivo. Particulars: for mortality at 10 ppm / mortality at 50 ppm / mortality at 100 ppm / mortality at 200 ppm: Reticulitermes flavipes, read-out: Percent Mortality. As to the method: as §1
Solutions of the test materials were applied directly to 50 termites (Reticulitermes flavipes) per petri plate using a track sprayer calibrated to deliver 1.2 ml per petri plate at 40 psi. After application, petri dishes with treated termites were inverted onto fresh petri plates containing dry filter paper. After all applications were completed, termites were then transferred to petri dishes containing moist soil with cardboard as a food source. Expired termites were removed at each reading. At 0 hours, 1 hour, 2 hours, 1 day, and 2 days after treatment (HAT or DAT, respectively), termite mortality was measured. The following calculation determined whether the combination treatments provided enhanced activity over what would be expected based on the activity of each active ingredient separately: [formula]
A and B refer to the two separate treatments of two different active ingredients at specific rates.

For `Cc1c(COC(=O)[C@@H]2[C@H](/C=C(\Cl)C(F)(F)F)C2(C)C)cccc1-c1ccccc1` (racemic) [Bifenthrin, bifenthrin], the mortality at 60 ppm in data set [1] (24 h, 1 DAT) was found to be 6%; in data set [1] (72 h, 3 DAT), 6%; in data set [1] (144 h, 6 DAT) it was 11%; in data set [1] (192 h, 8 DAT), 13%; in data set [1] (240 h, 10 DAT) it was 13%; in data set [1] (312 h, 13 DAT), 13%. Besides, the mortality at 60 ppm in data set [1] (360 h, 15 DAT) was determined as 16%; in data set [1] (408 h, 17 DAT) it was 16%; in data set [1] (480 h, 20 DAT) it was 16%; in data set [1] (528 h, 22 DAT), 16%. Further, the “Percent Mortality” value in data set [2] (Bifenthrin @ 10 ppm, 1 HAT) stood at 0%; in data set [2] (Bifenthrin @ 10 ppm, 2 HAT) it was 0%; in data set [2] (Bifenthrin @ 50 ppm, 1 HAT) it was 0%; in data set [2] (Bifenthrin @ 50 ppm, 2 HAT), 0%. In addition, the mortality at 10 ppm in data set [2] (24 h, Bifenthrin @ 10 ppm, 1 DAT) stood at 11%; in data set [2] (48 h, Bifenthrin @ 10 ppm, 2 DAT), 26%; in data set [2] (Bifenthrin @ 10 ppm, 0 HAT), 0%. Also, the mortality at 50 ppm is 63% in data set [2] (24 h, Bifenthrin @ 50 ppm, 1 DAT); 96% in data set [2] (48 h, Bifenthrin @ 50 ppm, 2 DAT); 0% in data set [2] (Bifenthrin @ 50 ppm, 0 HAT).
In the case of `C/C(=N\C#N)N(C)Cc1ccc(Cl)nc1` [Acetamiprid, acetamiprid], the mortality at 500 ppm was 5% in data set [1] (24 h, 1 DAT); 84% in data set [1] (72 h, 3 DAT); 100% in data set [1] (144 h, 6 DAT); 100% in data set [1] (192 h, 8 DAT); 100% in data set [1] (240 h, 10 DAT); 100% in data set [1] (312 h, 13 DAT). For the same compound, the mortality at 500 ppm in data set [1] (360 h, 15 DAT) was 100%; in data set [1] (408 h, 17 DAT) it was 100%; in data set [1] (480 h, 20 DAT), 100%; in data set [1] (528 h, 22 DAT), 100%. In addition, the “Percent Mortality” value came out at 0% in data set [2] (Acetamiprid @ 100 ppm, 1 HAT); 0% in data set [2] (Acetamiprid @ 100 ppm, 2 HAT); 0% in data set [2] (Acetamiprid @ 200 ppm, 1 HAT); 0% in data set [2] (Acetamiprid @ 200 ppm, 2 HAT). Further, the mortality at 100 ppm in data set [2] (24 h, Acetamiprid @ 100 ppm, 1 DAT) was found to be 16%; in data set [2] (48 h, Acetamiprid @ 100 ppm, 2 DAT), 78%; in data set [2] (Acetamiprid @ 100 ppm, 0 HAT), 0%. For the same compound, the mortality at 200 ppm in data set [2] (24 h, Acetamiprid @ 200 ppm, 1 DAT) was 35%; in data set [2] (48 h, Acetamiprid @ 200 ppm, 2 DAT) it was 88%; in data set [2] (Acetamiprid @ 200 ppm, 0 HAT) it was 0%.
